# Test results as given in US20250325552A1, “SUBSTITUTED THIADIAZOLYL DERIVATIVES AS DNA POLYMERASE THETA INHIBITORS” (IDEAYA Biosciences, Inc., priority 2020, published 2025).
# Biological target: Polθ theta (1-899) (hPolQ) (Homo sapiens (Human), UniProt O75417)
# Assay: Biological Assay 1: Polθ ATPase activity, NADH oxidation-coupled enzymatic assay (10 nM enzyme, 30 min)
# Assay type: biochemical
# Details: Polθ (1-899) 10 nM, 100 μM ATP, 300 nM dT50 ssDNA; Examples 1 to 268; read-out: ATPase NADH coupling:Standard Screening:hPolQ IC50
# In short: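 Polθ (1-899) at 10 nM was preincubated with compound for 15 min at room temperature in 20 mM Tris pH 7.80, 80 mM KCl, 10 mM MgCl2. An equal volume of 100 μM ATP, 300 nM dT50 ssDNA and a PK/LDH–NADH coupling system was then added. A340 was read each minute for 30 min. IC50 came from rate slopes over 10-point series with a four-parameter fit.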
# Chain of Polθ theta (1-899) (hPolQ) (O75417 1-899): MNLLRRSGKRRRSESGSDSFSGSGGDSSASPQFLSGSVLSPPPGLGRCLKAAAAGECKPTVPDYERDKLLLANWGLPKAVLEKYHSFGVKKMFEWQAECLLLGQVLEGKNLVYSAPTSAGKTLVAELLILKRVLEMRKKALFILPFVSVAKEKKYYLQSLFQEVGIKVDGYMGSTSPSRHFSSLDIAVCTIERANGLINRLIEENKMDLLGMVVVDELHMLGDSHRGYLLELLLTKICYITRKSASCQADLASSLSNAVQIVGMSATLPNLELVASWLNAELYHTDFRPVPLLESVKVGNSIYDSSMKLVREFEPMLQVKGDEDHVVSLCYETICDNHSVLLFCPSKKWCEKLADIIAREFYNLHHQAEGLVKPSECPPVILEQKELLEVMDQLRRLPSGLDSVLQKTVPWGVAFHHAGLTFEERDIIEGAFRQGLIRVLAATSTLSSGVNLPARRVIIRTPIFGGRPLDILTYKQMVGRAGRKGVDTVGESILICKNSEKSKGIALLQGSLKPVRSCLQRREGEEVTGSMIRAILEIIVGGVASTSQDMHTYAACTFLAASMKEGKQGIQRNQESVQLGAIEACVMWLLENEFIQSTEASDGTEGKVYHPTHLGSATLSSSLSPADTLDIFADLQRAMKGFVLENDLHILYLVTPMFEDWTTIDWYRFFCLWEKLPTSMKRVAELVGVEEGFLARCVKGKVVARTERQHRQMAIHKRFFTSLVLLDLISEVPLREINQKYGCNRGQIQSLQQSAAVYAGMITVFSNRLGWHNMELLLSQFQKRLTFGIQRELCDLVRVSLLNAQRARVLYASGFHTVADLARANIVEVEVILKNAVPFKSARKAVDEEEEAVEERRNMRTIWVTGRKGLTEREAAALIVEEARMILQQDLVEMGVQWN
row,IC50 [nM],SMILES
1,≤ 200,"CN=[S@@](C)(=O)c1ccc(COc2nnc(NC(=O)c3cnc(C)cc3-c3c(F)cccc3OC)s2)cc1 [Example 155, N-(5-((4-((S)—N,S-dimethylsulfonimidoyl)benzyl)oxy)-1,3,4-thiadiazol-2-yl)-4-(2-fluoro-6-methoxyphenyl)-6-methylnicotinamide]"
2,≤ 200,"COc1cnc(Cl)cc1-c1cc(C)ncc1C(=O)Nc1nnc(OCC2CCCC2O)s1 (centres unmarked) [Example 261, 2′-chloro-N-(5-((2-hydroxycyclopentyl)methoxy)-1,3,4-thiadiazol-2-yl)-5′-methoxy-6-methyl-(4,4′-bipyridine)-3-carboxamide]"
3,≤ 200,"COc1cnc(Cl)cc1-c1cc(C)ncc1C(=O)Nc1nnc(OCC2CS(=O)(=O)C2)s1 [Example 166, 2′-chloro-N-(5-((1,1-dioxidothietan-3-yl)methoxy)-1,3,4-thiadiazol-2-yl)-5′-methoxy-6-methyl-(4,4′-bipyridine)-3-carboxamide]"
4,≤ 200,"COc1cnc(Cl)cc1-c1cc(C)ncc1C(=O)Nc1nnc(OC[C@H]2CC[C@@](C)(O)CC2)s1 [Example 215, 2′-chloro-N-(5-(((1s,4s)-4-hydroxy-4-methylcyclohexyl)methoxy)-1,3,4-thiadiazol-2-yl)-5′-methoxy-6-methyl-(4,4′-bipyridine)-3-carboxamide]"
5,≤ 200,"COC(C)(C)c1ccc(COc2nnc(NC(=O)c3cnc(C)cc3-c3c(F)cccc3OC(F)F)s2)nc1 [Example 124, 4-(2-(difluoromethoxy)-6-fluorophenyl)-N-(5-((5-(2-methoxypropan-2-yl)pyridin-2-yl)methoxy)-1,3,4-thiadiazol-2-yl)-6-methylpyridine-3-carboxamide]"
6,≤ 200,"COc1cnc(Cl)c(F)c1-c1cc(C)ncc1C(=O)Nc1nnc(OCC2CCOC2)s1 (stereo in doubt) [Example 183, 2′-chloro-3′-fluoro-5′-methoxy-6-methyl-N-(5-(((R)-tetrahydrofuran-3-yl)methoxy)-1,3,4-thiadiazol-2-yl)-(4,4′-bipyridine)-3-carboxamide]"
7,500 to 1000,"COc1ccccc1-c1cc(C)ncc1C(=O)Nc1nnc(OCc2nccc3[nH]ncc23)s1 [Example 10, N-(5-((1H-pyrazolo(4,3-c)pyridin-4-yl)methoxy)-1,3,4-thiadiazol-2-yl)-4-(2-methoxyphenyl)-6-methylnicotinamide]"
8,≤ 200,"COc1cnc(Cl)cc1-c1cc(C)ncc1C(=O)Nc1nnc(OC[C@]2(C)CCOC2)s1 (single isomer, unassigned) [Example 160]"
9,≤ 200,"COc1cnc(C)cc1-c1cc(C)ncc1C(=O)Nc1nnc(OCc2ccc(C(C)(C)C#N)cn2)s1 [Example 83, N-(5-((5-(2-cyanopropan-2-yl)pyridin-2-yl)methoxy)-1,3,4-thiadiazol-2-yl)-5′-methoxy-2′,6-dimethyl-(4,4′-bipyridine)-3-carboxamide]"
10,200 to 500,"COc1ccccc1-c1cc(C)ncc1C(=O)Nc1nnc(OC[C@H](O)c2ccc(Cl)cn2)s1 [Example 27, (R)—N-(5-(2-(5-chloropyridin-2-yl)-2-hydroxyethoxy)-1,3,4-thiadiazol-2-yl)-4-(2-methoxyphenyl)-6-methylnicotinamide]"
11,≤ 200,"COc1cnc(Cl)cc1-c1cc(C)ncc1C(=O)Nc1nnc(OCC2CCO2)s1 (racemic) [Example 165, 2′-chloro-5′-methoxy-6-methyl-N-(5-(oxetan-2-ylmethoxy)-1,3,4-thiadiazol-2-yl)-(4,4′-bipyridine)-3-carboxamide]"
12,≤ 200,"COc1cnc(Cl)cc1-c1cc(C)ncc1C(=O)Nc1nnc(OCc2ccc(C(C)(C)O)cn2)s1 [Example 58, 2′-chloro-N-(5-((5-(2-hydroxypropan-2-yl)pyridin-2-yl)methoxy)-1,3,4-thiadiazol-2-yl)-5′-methoxy-6-methyl-[4,4′-bipyridine]-3-carboxamide]"
13,≤ 200,"COc1cccc(F)c1-c1cc(C)ncc1C(=O)Nc1nnc(OC[C@H]2CC[C@H](O)CC2)s1 [Example 104, 4-(2-fluoro-6-methoxyphenyl)-N-(5-(((1r,4r)-4-hydroxycyclohexyl)methoxy)-1,3,4-thiadiazol-2-yl)-6-methylnicotinamide]"
14,≤ 200,"COc1cnc(C)cc1-c1cc(C)ncc1C(=O)Nc1nnc(OCC23CC(O)(C2)C3)s1 [Example 98, N-(5-((3-hydroxybicyclo(1.1.1)pentan-1-yl)methoxy)-1,3,4-thiadiazol-2-yl)-5′-methoxy-2′,6-dimethyl-(4,4′-bipyridine)-3-carboxamide]"
15,≤ 200,"COc1cnc(Cl)cc1-c1cc(C)ncc1C(=O)Nc1nnc(OC[C@H]2CC[C@H](O)C2)s1 (single isomer, unassigned) [Example 208]"
16,≤ 200,"COc1cnc(Cl)cc1-c1cc(C)ncc1C(=O)Nc1nnc(OCC23COC(C2)C3)s1 [Example 229, N-(5-((2-oxabicyclo(2.1.1)hexan-4-yl)methoxy)-1,3,4-thiadiazol-2-yl)-2′-chloro-5′-methoxy-6-methyl-(4,4′-bipyridine)-3-carboxamide]"

row,IC50 [nM],SMILES
1,≤ 200,"COc1c(-c2cc(C)ncc2C(=O)Nc2nnc(OCc3ccc(Cl)cn3)s2)ccnc1C#N [Example 85, N-(5-((5-chloropyridin-2-yl)methoxy)-1,3,4-thiadiazol-2-yl)-2′-cyano-3′-methoxy-6-methyl-[4,4′-bipyridine]-3-carboxamide]"
2,≤ 200,"COc1cnc(Cl)cc1-c1cc(C)ncc1C(=O)Nc1nnc(OC[C@@H]2CCOC2(C)C)s1 (single isomer, unassigned) [Example 191]"
3,≤ 200,"COc1cnc(Cl)cc1-c1cc(C)ncc1C(=O)Nc1nnc(OCC2CCNC2)s1 (racemic) [Example 175, 2′-chloro-5′-methoxy-6-methyl-N-(5-(pyrrolidin-3-ylmethoxy)-1,3,4-thiadiazol-2-yl)-(4,4′-bipyridine)-3-carboxamide]"
4,≤ 200,"COc1cccc(F)c1-c1cc(C)ncc1C(=O)Nc1nnc(OCC2CC3(CC(O)C3)C2)s1 (centres unmarked) [Example 141, 4-(2-fluoro-6-methoxyphenyl)-N-(5-((6-hydroxyspiro(3.3)heptan-2-yl)methoxy)-1,3,4-thiadiazol-2-yl)-6-methylpyridine-3-carboxamide]"
5,≤ 200,"COc1cccc(F)c1-c1cc(C)ncc1C(=O)Nc1nnc(OCc2ccc([C@H](C)O)cn2)s1 [Example 40, 4-(2-fluoro-6-methoxyphenyl)-N-(5-((5-((S)-1-hydroxyethyl)pyridin-2-yl)methoxy)-1,3,4-thiadiazol-2-yl)-6-methylnicotinamide]"
6,≤ 200,"Cc1cc(-c2ccccc2OC(F)F)c(C(=O)Nc2nnc(OCc3ccc(CO)cn3)s2)cn1 [Example 17, 4-(2-(difluoromethoxy)phenyl)-N-(5-((5-(hydroxymethyl)pyridin-2-yl)methoxy)-1,3,4-thiadiazol-2-yl)-6-methylpyridine-3-carboxamide]"
7,≤ 200,"COc1cnc(Cl)cc1-c1cc(C)ncc1C(=O)Nc1nnc(OCc2ccc(OC(F)F)cn2)s1 [Example 113, 2′-chloro-N-(5-((5-(difluoromethoxy)pyridin-2-yl)methoxy)-1,3,4-thiadiazol-2-yl)-5′-methoxy-6-methyl-(4,4′-bipyridine)-3-carboxamide]"
8,≤ 200,"COc1cccc(F)c1-c1cc(C)ncc1C(=O)Nc1nnc(OCc2ccc(S(C)(=O)=O)cn2)s1 [Example 24, 4-(2-fluoro-6-methoxyphenyl)-6-methyl-N-(5-((5-(methylsulfonyl)pyridin-2-yl)methoxy)-1,3,4-thiadiazol-2-yl)nicotinamide]"
9,≤ 200,"COc1cccc(F)c1-c1cc(C)ncc1C(=O)Nc1nnc(OCc2ccn(C)n2)s1 [Example 15, 4-(2-fluoro-6-methoxyphenyl)-6-methyl-N-(5-((1-methylpyrazol-3-yl)methoxy)-1,3,4-thiadiazol-2-yl)pyridine-3-carboxamide]"
10,200 to 500,"COc1cccnc1-c1cc(C)ncc1C(=O)Nc1nnc(OCc2ccc(Cl)cn2)s1 [Example 120, N-(5-((5-chloropyridin-2-yl)methoxy)-1,3,4-thiadiazol-2-yl)-3-methoxy-6′-methyl-(2,4′-bipyridine)-3′-carboxamide]"
11,≤ 200,"COc1cccc(F)c1-c1cc(C)ncc1C(=O)Nc1nnc(OCc2ccc([S@@](C)(=N)=O)cc2)s1 [Example 115, 4-(2-fluoro-6-methoxyphenyl)-6-methyl-N-(5-((4-((S)—S-methylsulfonimidoyl)benzyl)oxy)-1,3,4-thiadiazol-2-yl)nicotinamide]"
12,≤ 200,"COc1ccc(C)cc1-c1cc(C)ncc1C(=O)Nc1nnc(OCc2cnc(CO)cn2)s1 [Example 134, N-(5-((5-(hydroxymethyl)pyrazin-2-yl)methoxy)-1,3,4-thiadiazol-2-yl)-4-(2-methoxy-5-methylphenyl)-6-methylpyridine-3-carboxamide]"
13,≤ 200,"COc1cnc(Cl)cc1-c1cc(C)ncc1C(=O)Nc1nnc(OC[C@@]2(C)CCOC2)s1 (single isomer, unassigned) [Example 161]"
14,≤ 200,"COc1cnc(Cl)cc1-c1cc(C)ncc1C(=O)Nc1nnc(OCc2ccc(CO)cn2)s1 [Example 60, 2′-chloro-N-(5-((5-(hydroxymethyl)pyridin-2-yl)methoxy)-1,3,4-thiadiazol-2-yl)-5′-methoxy-6-methyl-[4,4′-bipyridine]-3-carboxamide]"
15,≤ 200,"COc1cccc(F)c1-c1cc(C)ncc1C(=O)Nc1nnc(OCc2ccc(CO)cn2)s1 [Example 14, 4-(2-fluoro-6-methoxyphenyl)-N-(5-((5-(hydroxymethyl)pyridin-2-yl)methoxy)-1,3,4-thiadiazol-2-yl)-6-methylpyridine-3-carboxamide]"
16,≤ 200,"COc1ccc(Cl)cc1-c1cc(C)ncc1C(=O)Nc1nnc(OCc2ccc([S@](C)(=N)=O)cc2)s1 [Example 122, (R)-4-(5-chloro-2-methoxyphenyl)-6-methyl-N-(5-((4-(S-methylsulfonimidoyl)benzyl)oxy)-1,3,4-thiadiazol-2-yl)nicotinamide]"
